According to ChEMBL document CHEMBL6096722, “A Hypoxia-Activated BODIPY-Azo Anticancer Prodrug for Bimodal Chemo-Photodynamic Therapy” (J Med Chem, 2025):
Active and inactive are the calls of the source. The rule behind the calls is not given here.

Experiments:
[1] = tested on: A-375; assay: Anticancer activity against human A-375 cells measured at 12 to 30 hrs under hypoxic condition; assay type: functional, cell-based; details: time 12-30 hrs
[2] = tested on: A-375; assay: Antitumor activity against human A-375 cells assessed as cell viability preincubated with compound for 4 hrs followed by light irradiation for 30 mins and measured after 24 hrs under normoxic condition by MTT assay; assay type: functional, cell-based; details: A-375, light or radiation study
[3] = tested on: A-375; assay: Cytotoxicity against human A-375 cells assessed as cell viability at 100 uM incubated for 4 hrs by CCK-8 assay; assay type: functional; details: read-out: Activity
[4] = tested on: A-375; assay: Cytotoxicity against human A-375 cells assessed as cell viability at >1 uM preincubated with compound for 4 hrs followed by light irradiation for 30 mins and measured after 24 hrs by CCK-8 assay; assay type: functional, cell-based; details: time 28.5 hrs
[5] = tested on: A-375; assay: Induction of ROS generation in human A-375 cells assessed as increase fluorescence intensity at 10 uM incubated with compound for 24 hrs by DCFH-DA staining based analysis; assay type: functional, cell-based
[6] = tested on: A-375; assay: Cytotoxicity against human A-375 cells assessed as cell viability at 0.25 to 16 uM incubated for 4 hrs by CCK-8 assay; assay type: functional; details: dose 0.25-16 µM
[7] = Retention time of the compound by HPLC-MASS analysis; assay type: physicochemical
[8] = tested on: A-375; assay: Antitumor activity against human A-375 cells assessed as cell viability preincubated with compound for 4 hrs followed by light irradiation for 30 mins and measured after 24 hrs under hypoxic condition by MTT assay; assay type: functional, cell-based; details: A-375, light or radiation study
[9] = Toxicity in BALB/c mouse assessed change in body weight at 2.9 mg/ml, ip measured for 60 mins with light irradiation; assay type: organism-based; details: in vivo, 1 h
[10] = tested on: A-375; assay: Antitumor activity against human A-375 cells assessed as cell viability incubated for 4 hrs under hypoxia condition by MTT assay; assay type: functional, cell-based; details: A-375, 4 h
[11] = tested on: A-375; assay: Antitumor activity against human A-375 cells xenografted in male BALB/c mouse assessed as tumor growth inhibition at 2.9 mg/ml, ip measured for 60 mins with light irradiation; assay type: functional; details: A-375, light or radiation study, 1 h, read-out: TGI
[12] = Selectivity index, ratio of IC50 for antitumor activity against human A-375 cells assessed as cell viability incubated for 4 hrs under hypoxic condition by MTT assay to IC50 for antitumor activity against human A-375 cells assessed as cell viability incubated for 4 hrs under normoxic condition by MTT assay; assay type: functional
[13] = Cytotoxicity against human HUVEC cells assessed as cell viability at upto 100 uM incubated for 4 hrs by CCK-8 assay; assay type: toxicity, cell-based; details: read-out: Activity
[14] = Toxicity in BALB/c mouse assessed at 2.9 mg/ml, ip assessed as morphological changes in tumor measured for 60 mins with light irradiation by H and E staining based analysis; assay type: organism-based; details: in vivo, 1 h
[15] = Photostability of compound in PBS buffer at pH 7.4 at 10 uM under 20 W/cm2 white LED light irradiation measured for 60 mins by absorption based assay; assay type: physicochemical; details: pH 7.4, 1 h
[16] = tested on: A-375; assay: Cytotoxicity against human A-375 cells assessed as cell viability at upto 100 uM incubated for 4 hrs under hypoxic condition by CCK-8 assay; assay type: functional, cell-based
[17] = tested on: A-375; assay: Cytotoxicity against human A-375 cells assessed as cell viability at 100 uM preincubated with compound for 4 hrs followed by light irradiation for 30 mins and measured after 24 hrs by CCK-8 assay; assay type: functional, cell-based; details: time 28.5 hrs
[18] = tested on: A-375; assay: Anticancer activity against human A-375 cells measured at 24 hrs under hypoxic condition; assay type: functional, cell-based
[19] = tested on: A-375; assay: Induction of ROS generation in human A-375 cells assessed as increase in green fluorescence at 10 uM preincubated with compound for 24 hrs followed by light irradiation for 30 mins and measured after 30 mins by DCFH-DA staining based fluorescence microscopic analysis; assay type: functional, cell-based; details: time 25.0 hrs
[20] = Photostability of compound in PBS buffer at pH 7.4 at 10 uM under 20 W/cm2 white LED light irradiation measured upto 10 mins by absorption based assay; assay type: physicochemical; details: pH 7.4, 10 min
[21] = Induction of singlet oxygen quantum yield under irradiation with 590 nm LED light by DPBF based assay; assay type: functional
[22] = tested on: A-375; assay: Antitumor activity against human A-375 cells assessed as cell viability incubated for 4 hrs under normoxic condition by MTT assay; assay type: functional, cell-based; details: A-375, 4 h
[23] = tested on: A-375; assay: Cytotoxicity against human A-375 cells assessed as cell viability at upto 100 uM preincubated with compound for 4 hrs followed by light irradiation for 30 mins and measured after 24 hrs under hypoxic condition by CCK-8 assay; assay type: functional, cell-based; details: time 28.5 hrs
[24] = tested on: A-375; assay: Induction of apoptosis in human A-375 cells assessed as late apoptotic cells at 6 uM incubated for 24 hrs under hypoxia condition by Annexin V-FITC staining based flow cytometry analysis; assay type: functional
[25] = tested on: A-375; assay: Induction of apoptosis in human A-375 cells assessed as late apoptotic cells at 2 uM incubated for 24 hrs under normoxia condition by Annexin V-FITC staining based flow cytometry analysis; assay type: functional
[26] = tested on: A-375; assay: Induction of apoptosis in human A-375 cells assessed as viable cells at 2 uM incubated for 24 hrs under hypoxia condition by Annexin V-FITC staining based flow cytometry analysis; assay type: functional; details: read-out: Activity
[27] = tested on: A-375; assay: Induction of apoptosis in human A-375 cells assessed as early apoptotic cells at 4 uM incubated for 24 hrs under hypoxia condition by Annexin V-FITC staining based flow cytometry analysis; assay type: functional
[28] = tested on: A-375; assay: Induction of apoptosis in human A-375 cells assessed as late apoptotic cells at 4 uM incubated for 24 hrs under normoxia condition by Annexin V-FITC staining based flow cytometry analysis; assay type: functional
[29] = tested on: A-375; assay: Induction of apoptosis in human A-375 cells assessed as necrotic cells at 2 uM incubated for 24 hrs under hypoxia condition by Annexin V-FITC staining based flow cytometry analysis; assay type: functional
[30] = tested on: A-375; assay: Induction of apoptosis in human A-375 cells assessed as necrotic cells at 6 uM incubated for 24 hrs under hypoxia condition by Annexin V-FITC staining based flow cytometry analysis; assay type: functional
[31] = tested on: A-375; assay: Induction of apoptosis in human A-375 cells assessed as viable cells at 6 uM incubated for 24 hrs under normoxia condition by Annexin V-FITC staining based flow cytometry analysis; assay type: functional; details: read-out: Activity
[32] = tested on: A-375; assay: Induction of apoptosis in human A-375 cells assessed as viable cells at 2 uM incubated for 24 hrs under normoxia condition by Annexin V-FITC staining based flow cytometry analysis; assay type: functional; details: read-out: Activity
[33] = tested on: A-375; assay: Induction of apoptosis in human A-375 cells assessed as early apoptotic cells at 6 uM incubated for 24 hrs under normoxia condition by Annexin V-FITC staining based flow cytometry analysis; assay type: functional
[34] = tested on: A-375; assay: Induction of apoptosis in human A-375 cells assessed as necrotic cells at 2 uM incubated for 24 hrs under normoxia condition by Annexin V-FITC staining based flow cytometry analysis; assay type: functional
[35] = tested on: A-375; assay: Induction of apoptosis in human A-375 cells assessed as necrotic cells at 6 uM incubated for 24 hrs under normoxia condition by Annexin V-FITC staining based flow cytometry analysis; assay type: functional
[36] = tested on: A-375; assay: Induction of apoptosis in human A-375 cells assessed as early apoptotic cells at 2 uM incubated for 24 hrs under hypoxia condition by Annexin V-FITC staining based flow cytometry analysis; assay type: functional
[37] = tested on: A-375; assay: Induction of apoptosis in human A-375 cells assessed as early apoptotic cells at 6 uM incubated for 24 hrs under hypoxia condition by Annexin V-FITC staining based flow cytometry analysis; assay type: functional
[38] = tested on: A-375; assay: Induction of apoptosis in human A-375 cells assessed as late apoptotic cells at 2 uM incubated for 24 hrs under hypoxia condition by Annexin V-FITC staining based flow cytometry analysis; assay type: functional
[39] = tested on: A-375; assay: Induction of apoptosis in human A-375 cells assessed as viable cells at 6 uM incubated for 24 hrs under hypoxia condition by Annexin V-FITC staining based flow cytometry analysis; assay type: functional; details: read-out: Activity
[40] = tested on: A-375; assay: Induction of apoptosis in human A-375 cells assessed as early apoptotic cells at 4 uM incubated for 24 hrs under normoxia condition by Annexin V-FITC staining based flow cytometry analysis; assay type: functional
[41] = tested on: A-375; assay: Induction of apoptosis in human A-375 cells assessed as viable cells at 4 uM incubated for 24 hrs under normoxia condition by Annexin V-FITC staining based flow cytometry analysis; assay type: functional; details: read-out: Activity
[42] = tested on: A-375; assay: Induction of apoptosis in human A-375 cells assessed as necrotic cells at 4 uM incubated for 24 hrs under hypoxia condition by Annexin V-FITC staining based flow cytometry analysis; assay type: functional
[43] = tested on: A-375; assay: Induction of apoptosis in human A-375 cells assessed as viable cells at 4 uM incubated for 24 hrs under hypoxia condition by Annexin V-FITC staining based flow cytometry analysis; assay type: functional; details: read-out: Activity
[44] = tested on: A-375; assay: Induction of apoptosis in human A-375 cells assessed as necrotic cells at 4 uM incubated for 24 hrs under normoxia condition by Annexin V-FITC staining based flow cytometry analysis; assay type: functional
[45] = tested on: A-375; assay: Induction of apoptosis in human A-375 cells assessed as late apoptotic cells at 6 uM incubated for 24 hrs under normoxia condition by Annexin V-FITC staining based flow cytometry analysis; assay type: functional
[46] = tested on: A-375; assay: Induction of apoptosis in human A-375 cells assessed as late apoptotic cells at 4 uM incubated for 24 hrs under hypoxia condition by Annexin V-FITC staining based flow cytometry analysis; assay type: functional
[47] = tested on: A-375; assay: Induction of apoptosis in human A-375 cells assessed as early apoptotic cells at 2 uM incubated for 24 hrs under normoxia condition by Annexin V-FITC staining based flow cytometry analysis; assay type: functional

Structure (SMILES): CC1=C(Br)C(C)=[N+]2C1=C(c1ccccc1)c1c(C)c(Br)c(/C=C/c3ccc(O)cc3)n1[B-]2(F)F
- Activity [1]: Active
- IC50 [2]: 6.99 µM
- viability at 100 µM [3]: ~50%
- Activity [4]: Active
- Activity [5]: Active
- Activity [6]: >80%
- Retention_time [7]: 3.5 min
- IC50 [8]: 0.77 µM
- Activity [9]: Non-toxic
- IC50 [10]: > 16 µM
- inhibition in vivo at 2900 µg/mL [11]: 71%
- Ratio IC50 [12]: 309.63
- viability at 4 h, 100 µM [13]: > 90%
- Activity [14]: Non-toxic
- Stability [15]: Stable
- Activity [16]: Active
- Activity [17]: Active
- Activity [18]: Active
- Activity [19]: Active
- Stability [20]: Stable
- Activity [21]: Active
- IC50 [22]: > 100 µM
- Activity [23]: Active

Structure (SMILES): CC1=C(Br)C(C)=[N+]2C1=C(c1ccccc1)c1c(C)c(Br)c(/C=C/c3ccc(OCc4ccc(/N=N/c5ccc(N(CCCl)CCCl)cc5)cc4)cc3)n1[B-]2(F)F
- IC50 [2]: 1.35 µM
- viability at 100 µM [3]: ~50%
- Activity [24]: 3.285%
- Activity [5]: Active
- Activity [25]: 2.806%
- viability at 2 µM [26]: 96.3%
- Activity [27]: 0.147%
- Activity [28]: 6.769%
- Activity [6]: >80%
- Activity [29]: 13.664%
- Activity [30]: 1.274%
- Retention_time [7]: 1.422 min
- IC50 [8]: 4.18 µM
- viability at 6 µM [31]: 71.7%
- viability at 2 µM [32]: 92.7%
- Activity [33]: 12.663%
- Activity [34]: 0.058%
- IC50 [10]: > 16 µM
- inhibition in vivo at 2900 µg/mL [11]: 92%
- Ratio IC50 [12]: 11.02
- viability at 4 h, 100 µM [13]: > 90%
- Stability [15]: Stable
- Activity [35]: 0.247%
- Activity [36]: 0.809%
- Activity [16]: Active
- Activity [37]: 1.832%
- Activity [38]: 1.663%
- viability at 6 µM [39]: 93.6%
- Activity [40]: 7.534%
- Activity [17]: Active
- viability at 4 µM [41]: 85.5%
- Activity [42]: 0.975%
- viability at 4 µM [43]: 94.8%
- Activity [19]: Active
- Activity [44]: 0.185%
- Stability [20]: Stable
- Activity [21]: Active
- Activity [45]: 15.404%
- IC50 [22]: > 100 µM
- Activity [23]: Active
- Activity [46]: 3.098%
- Activity [47]: 4.467%
